{
  "source": "patent US7163961B1",
  "about": "“Drugs, foods and oral compositions containing stilbene-type compounds” (Sunstar Inc., priority 1999, dated 2007)",
  "key": {"[1]": {"test_system": "ovariectomized female stroke-prone spontaneously hypertensive rats (SHRSP/izm)", "assay": "Preventive action on hypertension, cardiac hypertrophy and cerebral apoplexy in ovariectomized rats", "assay_type": "in vivo, rat", "details": "feed with 1.5 g/kg of resveratrol added, 8 weeks", "text": "Rats subjected to climacteric conditions were studied to estimate the effect of the composition of the invention in preventing a rise in blood pressure, cardiac hypertrophy and cerebral apoplexy. Specifically, 18-week-old female stroke-prone spontaneously hypertensive rats (SHRSP/izm) were ovariectomized and subjected to climacteric conditions. Then, the rats were grouped into a resveratrol group and a control group. Also provided a sham group of rats which received a sham operation, that is, a laparotomy without ovary removal. The rats were fed ad libitum. The control group and sham group were fed with “Powdery Mixed Feed SP” (manufactured by Funahashi Farm), and the resveratrol group was fed with the same mixed feed with 1.5 g/kg of resveratrol added. Five rats in each group were bred for 8 weeks. The blood pressure of the rats was measured every week without anesthesia by means of a rat caudal artery sphygmomanometer. After the breeding period, the rats were slaughtered for dissection."}, "[2]": {"test_system": "male stroke-prone spontaneously hypertensive rats (SHRSP/izm)", "assay": "Preventive action on hypertension and cardiac hypertrophy in male rats", "assay_type": "in vivo, rat", "details": "8 weeks", "description": "The ability of the composition of the invention to prevent a rise in blood pressure and cardiac hypertrophy was researched using male rats. Firstly, 5- to 6-week-old male stroke-prone spontaneously hypertensive rats (SHRSP/izm) were grouped into a resveratrol group and a control group. The rats were fed ad libitum with “Powdery Mixed Feed SP” (manufacture by Funahashi Farm). The resveratrol group was administered resveratrol in an amount of 5 mg/kg per day. The administration was conducted by the intended clinical route, i.e., orally. The rats were force-fed orally once a day with a Teflon gastric tube. The dose was adjusted to 1 ml per 100 g of the body weight using a water for injection listed in The Japanese Pharmacopoeia, calculated according to the measured body weight of the individual rats. The control group was given the same amount of the water for injection listed in the Japanese Pharmacopoeia only. Each group had 5 rats that were bred for 8 weeks. The blood pressure of the rats was measured every 2 weeks without anesthesia by means of a rat caudal artery sphygmomanometer. After the breeding period, the rats were slaughtered for dissection and the ratio of the weight of the heart to the total body weight of the rats was measured."}, "[3]": {"test_system": "ovariectomized female stroke-prone spontaneously hypertensive rats (SHRSP/izm)", "assay": "Preventive action on decrease in bone weight in ovariectomized rats (climacteric conditions)", "assay_type": "in vivo, rat", "details": "left thigh bone, resveratrol in feed about 20 mg/kg per day, 8 weeks, mean ± SD, n = 5", "description": "Rats subjected to climacteric conditions were studied to estimate the effect of the composition of the invention in preventing a decrease in bone weight. Specifically, 18-week-old female stroke-prone spontaneously hypertensive rats (SHRSP/izm) were ovariectomized and subjected to climacteric conditions. Then, the rats were grouped into a resveratrol group to which resveratrol was administered and a control group. Also provided was a sham group of rats which received a sham operation, that is, a laparotomy without ovary removal. The rats were fed ad libitum. The control group and sham group were fed with “Powdery Mixed Feed SP” (manufactured by Funahashi Farm), and the resveratrol group was fed with the same feed with resveratrol added thereto. The amount of added resveratrol administered was adjusted to about 20 mg/kg per day. Each group had 5 rats that were bred for 8 weeks. After the breeding period, the rats were slaughtered for dissection. The left thigh bone was removed from each group's rats. The thigh bones were tested for their bone density and measured for their breaking load and breaking energy values using “EZ-test” (manufactured by Shimadzu Corporation), whereby their bone strength was evaluated."}, "[4]": {"test_system": "osteoblastic cells", "details": "cultured osteoblastic cell strain; Biochem. Biophys. Res. Commun. 253, 859–863 (1998); cited from earlier work"}},
  "data": [
    {"compound": "Oc1ccc(C=Cc2cc(O)cc(O)c2)cc1", "note": "[Resveratrol, 3,5,4′-stilbenetriol]", "values": [
      {"measurement": "Blood pressure compared with sham group", "setting": "[1]", "result": "about the same as that of the sham group"},
      {"measurement": "Cerebral infarction in brain tissue", "setting": "[1]; 5 rats, control group 4 rats out of 5", "result": "not found in any rats"},
      {"measurement": "Inhibition of rise in blood pressure (FIG. 1)", "setting": "[1]; caudal artery sphygmomanometer, weekly, without anesthesia", "result": "significantly higher action to inhibit a rise in the blood pressure than the control group"},
      {"measurement": "Brain weight per body weight", "setting": "[1]; mean ± SD, n = 5", "result": "0.803 ± 0.02", "unit": "%"},
      {"measurement": "Heart weight per body weight", "setting": "[1]; mean ± SD, n = 5", "result": "0.424 ± 0.023", "unit": "%"},
      {"measurement": "Heart weight per body weight", "setting": "[2]; 5 mg/kg per day orally by gastric tube, mean ± SD, n = 5", "result": "0.557 ± 0.024", "unit": "%"},
      {"measurement": "Inhibition of rise in blood pressure (FIG. 2)", "setting": "[2]; 5 mg/kg per day orally, caudal artery sphygmomanometer, every 2 weeks", "result": "significantly higher action to inhibit a rise in the blood pressure"},
      {"measurement": "Breaking energy", "setting": "[3]; EZ-test", "result": "0.0523 ± 0.0073", "unit": "J"},
      {"measurement": "Breaking load", "setting": "[3]; EZ-test", "result": "99.46 ± 9.57", "unit": "N"},
      {"measurement": "Bone density", "setting": "[3]", "result": "1.479 ± 0.281", "unit": "g/mL"},
      {"measurement": "Activity of alkaline phosphatase", "setting": "[4]", "result": "accelerates the activity of alkaline phosphatase"},
      {"measurement": "Activity of prolyl hydroxylase", "setting": "[4]", "result": "enhances the activity of prolyl hydroxylase"},
      {"measurement": "Proliferation of osteoblastic cells", "setting": "[4]", "result": "accelerates the proliferation of osteoblastic cells"}
    ]}
  ]
}
